Tests used:
Adenosine kinase = Adenosine kinase (Homo sapiens, UniProt P55263); experiment: Inhibitory activity against human recombinant adenosine kinase
Rattus norvegicus = experiment: Anti-inflammatory activity at a dose of 10 mg/kg, perorally in rat Carrageenan paw edema model; format: functional; conditions: route oral

Adenosine kinase, sequence (P55263 whole entry): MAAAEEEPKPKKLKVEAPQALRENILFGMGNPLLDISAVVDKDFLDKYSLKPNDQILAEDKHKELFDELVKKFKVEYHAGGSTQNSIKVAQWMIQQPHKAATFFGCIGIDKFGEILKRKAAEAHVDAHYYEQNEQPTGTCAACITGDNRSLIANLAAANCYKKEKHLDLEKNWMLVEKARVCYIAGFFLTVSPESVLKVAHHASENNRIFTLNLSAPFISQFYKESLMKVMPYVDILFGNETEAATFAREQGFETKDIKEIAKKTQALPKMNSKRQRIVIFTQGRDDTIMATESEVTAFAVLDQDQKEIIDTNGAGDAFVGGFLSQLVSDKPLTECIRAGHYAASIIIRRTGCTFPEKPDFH

Structure (SMILES)	IC50 (Adenosine kinase) [nM]	inhibition in vivo at 10 mg/kg (Rattus norvegicus) [%]
OC[C@@H]1O[C@@H](n2nc(-c3ccccc3)c3c(Nc4ccccc4)ncnc32)[C@H](O)[C@@H]1O (single isomer, unassigned)	2.8	14.2
Nc1ncnc2c1c(Br)cn2[C@@H]1O[C@@H](CO)[C@@H](O)[C@H]1O (single isomer, unassigned)	280	–
COC[C@@H]1O[C@@H](n2cc(I)c3c(N)ncnc32)[C@H](O)[C@@H]1O (single isomer, unassigned)	2000	–
Nc1ncnc2c1c(Br)nn2[C@@H]1O[C@@H](CO)[C@@H](O)[C@H]1O (single isomer, unassigned)	10000	–
NC[C@@H]1O[C@@H](n2cc(I)c3c(N)ncnc32)[C@H](O)[C@@H]1O (single isomer, unassigned)	16	–
Nc1ncnc2c1ncn2[C@@H]1O[C@@H](CO)[C@@H](O)[C@H]1O (single isomer, unassigned)	1000	–
NC[C@@H]1O[C@@H](n2nc(Br)c3c(N)ncnc32)[C@H](O)[C@@H]1O (single isomer, unassigned)	170	–
OC[C@@H]1O[C@@H](n2cc(-c3ccccc3)c3c(Nc4ccc(F)cc4)ncnc32)[C@H](O)[C@@H]1O (single isomer, unassigned)	1.5	53.5
NC[C@H]1O[C@@H](n2nc(Br)c3c(N)ncnc32)[C@H](O)[C@@H]1O (single isomer, unassigned)	4	–
NC[C@@H]1O[C@@H](n2cnc3c(N)ncnc32)[C@H](O)[C@@H]1O (single isomer, unassigned)	10000	–
NC[C@@H]1O[C@@H](n2nc(-c3ccccc3)c3c(Nc4ccccc4)ncnc32)[C@H](O)[C@@H]1O (single isomer, unassigned)	42	–
Nc1ncnc2c1c(I)cn2[C@@H]1O[C@@H](CO)[C@@H](O)[C@H]1O (single isomer, unassigned)	–	43.8
COC[C@@H]1O[C@@H](n2cc(-c3ccccc3)c3c(Nc4ccccc4)ncnc32)[C@H](O)[C@@H]1O (single isomer, unassigned)	15	86
C[C@H]1O[C@@H](n2cc(-c3ccccc3)c3c(Nc4ccc(F)cc4)ncnc32)[C@H](O)[C@@H]1O (single isomer, unassigned)	5	–
